A short description of the data set: mn = molality of the nth substance listed, in mol/kg. The note with it: 283.15 K; 101 kPa; Liquid; Vibrating tube method; m2 = 0.

SMILES strings stand for the structures. Numbers after ± are expanded uncertainties.

For the compound `O` [water] + N.N.O=C(O)CC(O)(CC(=O)O)C(=O)O, the mass density (in general, mass per unit of volume) came out at 999.699 ± 0.15 kg/m3.

Take `O` [water] + NCC(=O)O: the mass density was determined as 999.699 ± 0.11 kg/m3.

In the case of `O` [water] + N[C@@H](CO)C(=O)O, the mass density amounted to 999.699 ± 0.12 kg/m3.

Values taken from the NIST ThermoML archive (doi:10.1016/j.jct.2010.08.021).
